Reference: patent EP0336068A1, “Phenoxyalkoxy-3,4-dihydro-2H-1-benzopyran derivatives” (F. HOFFMANN-LA ROCHE AG, priority 1988, dated 1989)

Tested on: Antibiotic-Induced Colitis in Hamsters
Assay: Antibiotic-induced colitis in hamsters (in vivo), survival
Parameters: species or system Syrian hamsters
Conditions: given orally at 20 micromoles per kilogram; colitis induced by 175 mg/kg clindamycin intraperitoneally; first dose about seven hours after injection, then twice a day for four more days; Hazard Ratio >1.0 = therapy prolongs survival versus vehicle
Experimental: Antibiotic-Induced Colitis in Hamsters (In Vivo):
Male Syrian hamsters (LUG), weighing 80 to 120 g, were each given a single dose of 175 mg/kg of clindamycin-phosphate or of clindamycin-hydrochloride intraperitoneally, to induce colitis. Approximately seven hours after injection, the animals wer given the test compound orally or intraperitoneally and the therapy was continued twice a day for a period of four more days. The effect of the therapy was measured by use of the Hazard Ratio, which is the ratio of the mortality of the animals treated with the test compound contained in a vehicle to the mortality of the animals treated with the vehicle containing none of the test compound. The mortality was determined for the test compound-treated groups and for the vehicle-treated groups, respectively, twice daily, and was evaluated by comparing the survival curves of each group. The Kaplan-Meier estimate of the survival curve was calculated for each group and the Mantel-Cox (logrank) test was used to compare the survival curve of each test compound-treated (therapy) group to that of the corresponding vehicle control group.

SMILES: CCCCCCCCOC(=O)C1CCc2cc(C(C)=O)c(OCCCCCOc3ccc(C(C)=O)c(O)c3CCC)cc2O1 (racemic) [racemic 6-acetyl-7-[5-(4-acetyl-3-hydroxy-2-propylphenoxy)pentyloxy]-3,4-dihydro-2H-1-benzopyran-2-carboxylic acid n-octyl ester]
- Hazard Ratio: 2.0
